Values joined by “and” are separate entries in the source; they are usually repeats but may differ in a detail not shown here. Identical values can stand only once. Toxic doses and inconclusive results are not listed.

The subject of this experiment is P388 leukemia ip, CD2F1 mice, survival T/C. Briefly: NCI In Vivo Anticancer Drug Screen. Data for tumor model P388 Leukemia (intraperitoneal) in CD2F1 (CDF1) mice. The note with it: endpoint: median survival time, higher = longer survival. In a few lines:
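Mice carrying the transplanted tumor received test compound or vehicle. Survival was recorded in each group, and the value is the treated-group measurement divided by that of the vehicle-treated control group.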

The mark [1] stands for this setting: dose: 12.5 mg/kg/injection, schedule: Q01DX005 (ip), vehicle: saline with Tween-80.
The mark [2] stands for this setting: dose: 25.0 mg/kg/injection, schedule: Q01DX005 (ip), vehicle: saline with Tween-80.
The mark [3] stands for this setting: dose: 100.0 mg/kg/injection, schedule: Q04DX002 (ip), vehicle: saline with Tween-80.
The mark [4] stands for this setting: dose: 200.0 mg/kg/injection, schedule: Q04DX002 (ip), vehicle: saline with Tween-80.
[5] abbreviates: dose: 400.0 mg/kg/injection, schedule: Q04DX002 (ip), vehicle: saline with Tween-80.
Where [6] appears, read: dose: 50.0 mg/kg/injection, schedule: Q01DX009 (ip), vehicle: saline with Tween-80.
Setting [7] is: dose: 100.0 mg/kg/injection, schedule: Q01DX009 (ip), vehicle: saline with Tween-80.
Where [8] appears, read: dose: 200.0 mg/kg/injection, schedule: Q01DX009 (ip), vehicle: saline with Tween-80.
Setting [9] is: dose: 6.25 mg/kg/injection, schedule: Q01DX005 (ip), vehicle: saline with Tween-80.
The mark [10] stands for this setting: dose: 50.0 mg/kg/injection, schedule: Q01DX009 (ip), vehicle: saline.
The mark [11] stands for this setting: dose: 100.0 mg/kg/injection, schedule: Q01DX009 (ip), vehicle: saline.
Where [12] appears, read: dose: 200.0 mg/kg/injection, schedule: Q01DX009 (ip), vehicle: saline.
The mark [13] stands for this setting: dose: 25.0 mg/kg/injection, schedule: Q01DX009 (ip), vehicle: saline with Tween-80.
The mark [14] stands for this setting: dose: 50.0 mg/kg/injection, schedule: Q01DX005 (ip), vehicle: saline with Tween-80.

For the compound `CC(C)NC(=O)OCc1cn2c(c1COC(=O)NC(C)C)CCC2`, the T/C is, setting by setting: under setting [1], 120 % of control and 121 % of control; under setting [2], 112 % of control.

As to `O=C(C#Cc1ccccc1)c1cccnc1`, the T/C is 107 % of control (dose: 12.5 mg/kg/injection, schedule: Q04DX003 (ip), vehicle: Klucel (hydroxypropylcellulose) (HPC)) and 107 % of control (dose: 25.0 mg/kg/injection, schedule: Q04DX003 (ip), vehicle: Klucel (hydroxypropylcellulose) (HPC)).

Turning to `COC(=O)C12OCC34C(CC5C(C)=CC(=O)C(O)C5(C)C3C(O)C1O)OC(=O)C(OC(=O)CC(C)C)C24` (centres undefined), the T/C is 124 % of control (dose: 0.25 mg/kg/injection, schedule: Q01DX009 (ip), vehicle: saline + alcohol); 122 % of control (dose: 0.5 mg/kg/injection, schedule: Q01DX009 (ip), vehicle: saline + alcohol); 163 % of control (dose: 2.0 mg/kg/injection, schedule: Q01DX009 (ip), vehicle: saline + alcohol).

In the case of `COC1C(/C=C/c2cnc(N)s2)OC2OC(C)(C)OC21` (centres undefined), the T/C reads like this: under setting [3], 102 % of control; under setting [4], 102 % of control; under setting [5], 115 % of control.

As for `CC1=NN(C(=O)c2ccncc2)C(=O)C1N=Nc1ccc(S(N)(=O)=O)cc1` (centres undefined), the T/C is, setting by setting: under setting [6], 94 % of control; under setting [7], 95 % of control; under setting [8], 92 % of control.

With `Cc1cc(C(=O)Nc2ccc(NC3=NCCN3)cc2)cc(C(=O)Nc2ccc(NC3=NCCN3)cc2)c1`, the T/C is, setting by setting: (dose: 3.12 mg/kg/injection, schedule: Q01DX005 (ip), vehicle: saline with Tween-80) 100 % of control; under setting [9], 107 % of control; under setting [1], 106 % of control.

Consider `CCCCCCNC(=S)Nc1ccc2cc(C)ccc2n1`, for which the T/C by setting is: (dose: 50.0 mg/kg/injection, schedule: Q01DX009 (ip), vehicle: Klucel (hydroxypropylcellulose) (HPC)) 91 % of control; (dose: 100.0 mg/kg/injection, schedule: Q01DX009 (ip), vehicle: Klucel (hydroxypropylcellulose) (HPC)) 91 % of control; (dose: 200.0 mg/kg/injection, schedule: Q01DX009 (ip), vehicle: Klucel (hydroxypropylcellulose) (HPC)) 94 % of control.

As for `CC(=N\O)/C(C)=N/Nc1ccccc1Cl`, the T/C by setting is: under setting [10], 98 % of control; under setting [11], 104 % of control; under setting [12], 89 % of control.

On to `CCCCCCCCCCC[N+](C)([O-])CCCCCC[N+](C)([O-])CCCCCCCCCCC` (centres undefined), for which the T/C was 100 % of control (dose: 12.5 mg/kg/injection, schedule: Q01DX009 (ip), vehicle: saline with Tween-80); 100 % of control under setting [13]; 102 % of control and 96 % of control under setting [6].

With `C=CCNC(=S)NC(c1ccc(OC)cc1)C(CC)c1ccc(OC)cc1` (centres undefined), the T/C by setting is: under setting [3], 100 % of control; under setting [4], 101 % of control; under setting [5], 106 % of control.

For `CN(C)CC#CC1(O)c2ccccc2CCc2ccccc21`, the T/C is 91 % of control under setting [10], 91 % of control under setting [11] and 91 % of control under setting [12].

Take `CC1(C)N=C(N)N=C(N)N1c1cccc(CCCCc2ccccc2)c1`: the T/C by setting is: (dose: 0.75 mg/kg/injection, schedule: Q01DX009 (ip), vehicle: saline sonified) 109 % of control; (dose: 1.5 mg/kg/injection, schedule: Q01DX009 (ip), vehicle: saline sonified) 113 % of control; (dose: 3.0 mg/kg/injection, schedule: Q01DX009 (ip), vehicle: saline sonified) 118 % of control; (dose: 50.0 mg/kg/injection, schedule: Q04DX003 (ip), vehicle: saline sonified) 86 % of control.

With `CCCCNC(=O)C(N)CON` (centres undefined), the T/C is 106 % of control (dose: 50.0 mg/kg/injection, schedule: Q01DX005 (ip), vehicle: saline); 113 % of control (dose: 100.0 mg/kg/injection, schedule: Q01DX005 (ip), vehicle: saline); 106 % of control (dose: 200.0 mg/kg/injection, schedule: Q01DX005 (ip), vehicle: saline).

Take `CCCc1cc(=O)[nH]c(Sc2c([N+](=O)[O-])ncn2C)n1`: the T/C reads like this: under setting [6], 103 % of control; under setting [7], 95 % of control; under setting [8], 91 % of control.

`COC12c3c(C)cc(O)c4c(=O)occ(c34)C(=O)C1C13COC(=O)c4c(O)cc(C)c(c41)C(=O)C2C3OC(C)=O` (centres undefined): the T/C was 107 % of control and 119 % of control under setting [13]; 111 % of control and 122 % of control under setting [6]; 103 % of control and 120 % of control and 123 % of control under setting [7].

Regarding `O=C1C(=O)c2nc3ccccc3nc2-c2ccccc21`, the T/C was 103 % of control (dose: 25.0 mg/kg/injection, schedule: Q01DX005 (ip), vehicle: water); 97 % of control (dose: 50.0 mg/kg/injection, schedule: Q01DX005 (ip), vehicle: water); 100 % of control (dose: 100.0 mg/kg/injection, schedule: Q01DX005 (ip), vehicle: water); 96 % of control (dose: 200.0 mg/kg/injection, schedule: Q01DX005 (ip), vehicle: water); 104 % of control (dose: 400.0 mg/kg/injection, schedule: Q01DX005 (ip), vehicle: water).

In the case of `CCC(C)(C)C(=O)Nc1cccc(OC(=O)NC)c1`, the T/C runs as follows: under setting [13], 100 % of control; under setting [6], 92 % of control; under setting [7], 101 % of control.

On to `CCN(Cc1cc(Nc2ccnc3cc(Cl)ccc23)ccc1O)C(=O)N1CCN(C)CC1`, for which the T/C is 100 % of control (dose: 100.0 mg/kg/injection, schedule: Q04DX002 (ip), vehicle: Klucel (hydroxypropylcellulose) (HPC)); 96 % of control (dose: 200.0 mg/kg/injection, schedule: Q04DX002 (ip), vehicle: Klucel (hydroxypropylcellulose) (HPC)); 96 % of control (dose: 400.0 mg/kg/injection, schedule: Q04DX002 (ip), vehicle: Klucel (hydroxypropylcellulose) (HPC)).

For the compound `CCCc1c(C(=O)OCCCN(CC)CC)c(C(=O)OCCCN(CC)CC)c(CCC)n1-c1ccccc1`, where the note is “dose: 25.0 mg/kg/injection, schedule: Q01DX005 (ip), vehicle: saline”, the T/C was 105 % of control.

In the case of `Cc1cc(O)c2c(c1)C(=O)c1cccc(O)c1C2=O`, the T/C runs as follows: (dose: 6.25 mg/kg/injection, schedule: Q01DX009 (ip), vehicle: saline) 100 % of control; (dose: 12.5 mg/kg/injection, schedule: Q01DX009 (ip), vehicle: saline) 111 % of control; (dose: 25.0 mg/kg/injection, schedule: Q01DX009 (ip), vehicle: saline) 117 % of control; under setting [10], 108 % of control.

For `COC(=O)C1=CN(C)C(c2ccccc2)C=C1` (centres undefined), the T/C was 103 % of control under setting [14]; 107 % of control (dose: 100.0 mg/kg/injection, schedule: Q01DX005 (ip), vehicle: saline with Tween-80); 112 % of control (dose: 200.0 mg/kg/injection, schedule: Q01DX005 (ip), vehicle: saline with Tween-80).

`C[C@@H]1CN(C(=O)CCOS(C)(=O)=O)[C@@H](C)CN1C(=O)CCOS(C)(=O)=O`: the T/C by setting is: (dose: 3.13 mg/kg/injection, schedule: Q04DX003 (ip), vehicle: saline) 113 % of control; (dose: 6.25 mg/kg/injection, schedule: Q04DX003 (ip), vehicle: saline) 122 % of control; (dose: 264.0 mg/kg/injection, schedule: Q04DX003 (ip), vehicle: saline with Tween-80) 218 % of control; (dose: 400.0 mg/kg/injection, schedule: Q04DX003 (ip), vehicle: saline with Tween-80) 118 % of control.

In the case of `Cc1ccc[n+](Cc2ccccc2Cl)c1`, the T/C runs as follows: (dose: 12.5 mg/kg/injection, schedule: Q01DX005 (ip), vehicle: Klucel (hydroxypropylcellulose) (HPC)) 113 % of control; (dose: 25.0 mg/kg/injection, schedule: Q01DX005 (ip), vehicle: Klucel (hydroxypropylcellulose) (HPC)) 113 % of control; (dose: 50.0 mg/kg/injection, schedule: Q01DX005 (ip), vehicle: Klucel (hydroxypropylcellulose) (HPC)) 101 % of control.

On to `OC[P+](CO)(CO)CO`, for which the T/C is 117 % of control and 96 % of control under setting [9]; 114 % of control and 96 % of control under setting [1]; 95 % of control under setting [2]; 104 % of control and 122 % of control under setting [14].

These data come from PubChem BioAssay AID330 (DTP/NCI, 2004).
